Numbers after ± are expanded uncertainties. One block for each molecule: values may come before it.
Settings: Liquid, Closed cell (Static) method

SMILES: C=CCC [1-butene]
vapor or sublimation pressure (323.27 K): 596.14 ± 2.1 kPa

SMILES: C/C=C/C [(E)-2-butene]
vapor or sublimation pressure (332.05 K): 606.54 ± 2.2 kPa

SMILES: C/C=C\C [(Z)-2-butene]
vapor or sublimation pressure (331.92 K): 561.34 ± 2.1 kPa

SMILES: CCCO [propan-1-ol]
vapor or sublimation pressure (318.58 K): 9.47 ± 0.17 kPa
vapor or sublimation pressure (323.07 K): 12.07 ± 0.18 kPa
vapor or sublimation pressure (323.26 K): 12.27 ± 0.18 kPa
vapor or sublimation pressure (330.16 K): 17.57 ± 0.19 kPa
vapor or sublimation pressure (331.92 K): 19.07 ± 0.18 kPa
vapor or sublimation pressure (332.05 K): 19.17 ± 0.18 kPa

Further lines, results first:

vapor or sublimation pressure (318.59 K): 610.84 ± 2.1 kPa
SMILES: CC(C)C [2-methylpropane]

vapor or sublimation pressure (323.07 K): 607.94 ± 2.1 kPa
SMILES: C=C(C)C [2-methylpropene]

vapor or sublimation pressure (330.16 K): 592.44 ± 2.6 kPa
SMILES: CCCC [butane]
